Results as given in patent publication US9993494B2, “Compositions and methods for treating fibrotic disease” (eFFECTOR Therapeutics, Inc., priority 2014, dated 2018).

Test system: normal human lung fibroblasts
Test: Ribosomal profiling: translational efficiency in TGFβ-treated fibroblasts
Format: cell-based
Outline: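 Genome-wide RPF and total RNA libraries (ARTseq, RNA-Seq) were made from lysates of cycloheximide-treated, PBS-washed cells. After trimming and human-genome mapping, per-gene coding-region counts were compared between RPF and RNA for translational efficiency. Genes scoring low in either fraction were dropped.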

## TGFβ
ENSG00000100784, 5 replicates
  Log2 TE RPS6KA5: −1.431
ENSG00000101639, 5 replicates
  Log2 TE CEP192: −1.192
ENSG00000101639, Control vs. TGFβ
  change in translational profile of CEP192 caused by TGFβ: C (C = <−1.0 to −1.5)
ENSG00000101935, Control vs. TGFβ
  change in translational profile of AMMECR1 caused by TGFβ: D (D = <1.0 to 1.5)
ENSG00000102007, Control vs. TGFβ
  change in translational profile of PLP2 caused by TGFβ: D (D = <1.0 to 1.5)
ENSG00000104205, 5 replicates
  Log2 TE SGK3: −1.011
ENSG00000104321, 5 replicates
  Log2 TE TRPA1: −1.256
ENSG00000104408, 5 replicates
  Log2 TE EIF3E: 1.469
ENSG00000104408, Control vs. TGFβ
  change in translational profile of EIF3E caused by TGFβ: E (E = <1.5 to 2.5)
ENSG00000104529, 5 replicates
  Log2 TE EEF1D: 1.619
ENSG00000104529, Control vs. TGFβ
  change in translational profile of EEF1D caused by TGFβ: E (E = <1.5 to 2.5)
ENSG00000104979, Control vs. TGFβ
  change in translational profile of C19orf53 caused by TGFβ: D (D = <1.0 to 1.5)
ENSG00000105193, 5 replicates
  Log2 TE RPS16: 1.989
ENSG00000105372, 5 replicates
  Log2 TE RPS19: 1.55
ENSG00000105373, 5 replicates
  Log2 TE GLTSCR2: 2.067
ENSG00000105373, Control vs. TGFβ
  change in translational profile of GLTSCR2 caused by TGFβ: E (E = <1.5 to 2.5)
ENSG00000105514, Control vs. TGFβ
  change in translational profile of RAB3D caused by TGFβ: B (B = <−1.5 to −2.5)
ENSG00000105640, 5 replicates
  Log2 TE RPL18A: 1.669
ENSG00000105640, Control vs. TGFβ
  change in translational profile of RPL18A caused by TGFβ: E (E = <1.5 to 2.5)
ENSG00000105664, 5 replicates
  Log2 TE COMP: 1.317
ENSG00000105664, Control vs. TGFβ
  change in translational profile of COMP caused by TGFβ: E (E = <1.5 to 2.5)
ENSG00000106415, 5 replicates
  Log2 TE GLCCI1: −1.842
ENSG00000106415, Control vs. TGFβ
  change in translational profile of GLCCI1 caused by TGFβ: B (B = <−1.5 to −2.5)
ENSG00000106789, 5 replicates
  Log2 TE CORO2A: 1.212
ENSG00000106789, Control vs. TGFβ
  change in translational profile of CORO2A caused by TGFβ: E (E = <1.5 to 2.5)
ENSG00000107623, Control vs. TGFβ
  change in translational profile of GDF10 caused by TGFβ: C (C = <−1.0 to −1.5)
ENSG00000108107, 5 replicates
  Log2 TE RPL28: 1.869
ENSG00000108107, Control vs. TGFβ
  change in translational profile of RPL28 caused by TGFβ: E (E = <1.5 to 2.5)
ENSG00000108298, 5 replicates
  Log2 TE RPL19: 1.075
ENSG00000108298, Control vs. TGFβ
  change in translational profile of RPL19 caused by TGFβ: D (D = <1.0 to 1.5)
ENSG00000108551, 5 replicates
  Log2 TE RASD1: 1.836
ENSG00000108551, Control vs. TGFβ
  change in translational profile of RASD1 caused by TGFβ: E (E = <1.5 to 2.5)
ENSG00000108932, 5 replicates
  Log2 TE SLC16A6: −1.3497
ENSG00000109065, Control vs. TGFβ
  change in translational profile of NAT9 caused by TGFβ: D (D = <1.0 to 1.5)
ENSG00000109452, 5 replicates
  Log2 TE INPP4B: −1.569
ENSG00000109475, 5 replicates
  Log2 TE RPL34: 1.608
ENSG00000109475, Control vs. TGFβ
  change in translational profile of RPL34 caused by TGFβ: E (E = <1.5 to 2.5)
ENSG00000109674, 5 replicates
  Log2 TE NEIL3: −2.63
ENSG00000109846, 5 replicates
  Log2 TE CRYAB: 1.107
ENSG00000109846, Control vs. TGFβ
  change in translational profile of CRYAB caused by TGFβ: D (D = <1.0 to 1.5)
ENSG00000110700, 5 replicates
  Log2 TE RPS13: 1.539
ENSG00000111057, 5 replicates
  Log2 TE KRT18: 1.811
ENSG00000111640, 5 replicates
  Log2 TE GAPDH: 1.263
ENSG00000111640, Control vs. TGFβ
  change in translational profile of GAPDH caused by TGFβ: E (E = <1.5 to 2.5)
ENSG00000111678, 5 replicates
  Log2 TE C12orf57: 1.173
ENSG00000111678, Control vs. TGFβ
  change in translational profile of C12orf57 caused by TGFβ: D (D = <1.0 to 1.5)
ENSG00000112276, 5 replicates
  Log2 TE BVES: 1.173
ENSG00000112306, 5 replicates
  Log2 TE RPS12: 1.642
ENSG00000112559, Control vs. TGFβ
  change in translational profile of MDFI caused by TGFβ: A (A = <−2.5)
ENSG00000113070, 5 replicates
  Log2 TE HBEGF: 1.088
ENSG00000113070, Control vs. TGFβ
  change in translational profile of HBEGF caused by TGFβ: D (D = <1.0 to 1.5)
ENSG00000113272, 5 replicates
  Log2 TE THG1L: 1.155
ENSG00000114391, 5 replicates
  Log2 TE RPL24: 1.304
ENSG00000114391, Control vs. TGFβ
  change in translational profile of RPL24 caused by TGFβ: E (E = <1.5 to 2.5)
ENSG00000114942, 5 replicates
  Log2 TE EEF1B2: 1.434
ENSG00000114942, Control vs. TGFβ
  change in translational profile of EEF1B2 caused by TGFβ: E (E = <1.5 to 2.5)
ENSG00000115267, 5 replicates
  Log2 TE IFIH1: −1.416
ENSG00000115267, Control vs. TGFβ
  change in translational profile of IFIH1 caused by TGFβ: B (B = <−1.5 to −2.5)
ENSG00000115268, 5 replicates
  Log2 TE RPS15: 1.3
